Data as given in publication PMC3632285 (Journal of controlled release : official journal of the …, 2013).

Columns and labels:
[1] = system: human airway epithelial cells (Calu-3); assay: MTT cytotoxicity study in Calu-3 cells; format: cell-based; settings: 0.1% w/v, positive control, cell line not specified in the sentence (Fig. 6A)
[2] = In-vitro drug release in dialysis cassettes, PBS pH 7.4, 37°C; format: physicochemical; settings: plain drug control in dialysis cassette, data not shown
[3] = system: monocrotaline (MCT)-induced PAH rats; assay: Hemodynamic studies in monocrotaline; format: in vivo, Sprague-Dawley rats; settings: 3 mg/kg
[4] = cited from earlier work
[5] = various storage conditions; cited from earlier work
PAH patients = settings: dose of 30 or 40 mg; cited from earlier work
in vivo = settings: male, Sprague-Dawley, rat, 10 mg/kg

| Structure (SMILES) | Cell viability [1] [%] | Drug released in the media [2] [%] | Decrease in MPAP (maximal) ([3]; intratracheal) [%] | Reduction in MSAP ([3]; intratracheal) [%] | Decrease in MPAP (maximal) ([3]; intravenous) [%] | Duration of pulmonary vasodilatory effects (15% reduction in MPAP as baseline) ([3]; intravenous) [min] | Reduction in MSAP ([3]; intravenous) [%] | Duration of pulmonary vasodilatory effects (15% reduction in MPAP as baseline) ([3]; pulmonary (intratracheal)) [min] | pKa [4] | Time over which the drug is stable [5] | Effect on MPAP in PAH patients (PAH patients) | bioavailability (in vivo; Bioavailability (relative)) [%] | AUC(0-t) (in vivo; inhaled or intranasal) [ng·h/mL] | Cmax (in vivo; inhaled or intranasal) [ng/mL] | AUC(0-t) (in vivo; iv) [ng·h/mL] | Cmax (in vivo; iv) [ng/mL] |
| --- | --- | --- | --- | --- | --- | --- | --- | --- | --- | --- | --- | --- | --- | --- | --- | --- |
| CCCCCCCCCCCCOS(=O)(=O)[O-].[Na+] [SDS, sodium dodecyl sulfate] | 15 | – | – | – | – | – | – | – | – | – | – | – | – | – | – | – |
| O=S(=O)(c1cccc2cnccc12)N1CCCNCC1 [fasudil] | – | 100 | 38.3±7.3 | 38.1±10.8 | 45.6±17.0 | 50.0 ± 10.4 | 45.6±8.4 | 60.0 ± 15.3 | 9.727 | ~ 24 weeks | effective in reducing MPAP | ~40 | 2.33 | 66.2 ± 13.6 | 5.71 | 298 ± 10 |
